In US12077503B2, “Substituted cyclic amides and their use as herbicides” (FMC CORPORATION, priority 2015, dated 2024):

What was measured:
Type in all cases: in vivo
[1] = test system: corn (Zea mays); assay: Test G Post-Emergence Protocol; conditions: Zea mays, post-emergence, 312 h; for plant injury at 15.625 g/ha: 15.625 g ai/ha, evaluated after 13 days (100=total damage to plant; 0=no damage to plant), read-out: Corn damage rating; for plant injury at 62.5 g/ha: 62.5 g ai/ha, read-out: Corn damage rating (100=total damage to plant; 0=no damage to plant); for plant injury at 62.5 g/ha / plant injury at 250 g/ha: evaluated after 13 days; for plant injury at 250 g/ha: 250 g ai/ha, read-out: damage to plant, Corn (100=total damage to plant; 0=no damage to plant)
How it was run: (§1)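 Scores run 0 (no damage) to 100 (total damage) and were taken 13 days after spraying. Plants had been raised in pots for 8 days under glasshouse control (24/16 °C, 14 h photoperiod, 65% humidity) and then treated at 15.625, 62.5 or 250 g/ha.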

[2] = test system: giant foxtail (Setaria faberi); assay: Test G Post-Emergence Protocol; conditions: Setaria faberi, post-emergence, 312 h; for pest or weed control at 15.625 g/ha: 15.625 g ai/ha, evaluated after 13 days (100=total damage to plant; 0=no damage to plant), read-out: Foxtail, Giant damage rating; for pest or weed control at 62.5 g/ha: 62.5 g ai/ha, read-out: Foxtail, Giant damage rating (100=total damage to plant; 0=no damage to plant); for pest or weed control at 62.5 g/ha / pest or weed control at 250 g/ha: evaluated after 13 days; for pest or weed control at 250 g/ha: 250 g ai/ha, read-out: damage to plant, Foxtail, Giant (100=total damage to plant; 0=no damage to plant)
How it was run: as §1

[3] = test system: velvetleaf (Abutilon theophrasti); assay: Test G Post-Emergence Protocol; conditions: Abutilon theophrasti, post-emergence, 312 h; for pest or weed control at 15.625 g/ha: 15.625 g ai/ha, evaluated after 13 days (100=total damage to plant; 0=no damage to plant), read-out: Velvetleaf damage rating; for pest or weed control at 62.5 g/ha: 62.5 g ai/ha, read-out: Velvetleaf damage rating (100=total damage to plant; 0=no damage to plant); for pest or weed control at 62.5 g/ha / pest or weed control at 250 g/ha: evaluated after 13 days; for pest or weed control at 250 g/ha: 250 g ai/ha, read-out: damage to plant, Velvetleaf (100=total damage to plant; 0=no damage to plant)
How it was run: as §1

[4] = test system: barnyardgrass (Echinochloa crus-galli); assay: Test G Post-Emergence Protocol; conditions: Echinochloa crus-galli, post-emergence, 312 h; for pest or weed control at 15.625 g/ha: 15.625 g ai/ha, evaluated after 13 days (100=total damage to plant; 0=no damage to plant), read-out: Barnyardgrass damage rating; for pest or weed control at 62.5 g/ha: 62.5 g ai/ha, read-out: Barnyardgrass damage rating (100=total damage to plant; 0=no damage to plant); for pest or weed control at 62.5 g/ha / pest or weed control at 250 g/ha: evaluated after 13 days; for pest or weed control at 250 g/ha: 250 g ai/ha, read-out: damage to plant, Barnyardgrass (100=total damage to plant; 0=no damage to plant)
How it was run: as §1

[5] = test system: ivy-leaved morning glory (Ipomoea hederacea); assay: Test G Post-Emergence Protocol; conditions: Ipomoea, post-emergence, 312 h; for pest or weed control at 15.625 g/ha: 15.625 g ai/ha, evaluated after 13 days (100=total damage to plant; 0=no damage to plant), read-out: Morningglory, Ivy-leaved damage rating; for pest or weed control at 62.5 g/ha: 62.5 g ai/ha, read-out: Morningglory, Ivy-leaved damage rating (100=total damage to plant; 0=no damage to plant); for pest or weed control at 62.5 g/ha / pest or weed control at 250 g/ha: evaluated after 13 days; for pest or weed control at 250 g/ha: 250 g ai/ha, read-out: damage to plant, Morningglory, Ivy-leaved (100=total damage to plant; 0=no damage to plant)
How it was run: as §1

[6] = test system: redroot pigweed (Amaranthus retroflexus); assay: Test G Post-Emergence Protocol; conditions: Amaranthus retroflexus, post-emergence, 312 h; for pest or weed control at 15.625 g/ha: 15.625 g ai/ha, evaluated after 13 days (100=total damage to plant; 0=no damage to plant), read-out: Pigweed, Redroot damage rating; for pest or weed control at 62.5 g/ha: 62.5 g ai/ha, read-out: Pigweed, Redroot damage rating (100=total damage to plant; 0=no damage to plant); for pest or weed control at 62.5 g/ha / pest or weed control at 250 g/ha: evaluated after 13 days; for pest or weed control at 250 g/ha: 250 g ai/ha, read-out: damage to plant, Pigweed, Redroot (100=total damage to plant; 0=no damage to plant)
How it was run: as §1

[7] = test system: corn (Zea mays); assay: Test G Pre-Emergence Protocol; conditions: Zea mays, pre-emergence, 312 h, evaluated after 13 days; for plant injury at 15.625 g/ha: 15.625 g ai/ha; for plant injury at 15.625 g/ha / plant injury at 250 g/ha: read-out: Corn damage rating (100=total damage to plant; 0=no damage to plant); for plant injury at 62.5 g/ha: 62.5 g ai/ha, 100=total damage to plant, 0=no damage to plant, read-out: plant damage rating, Corn; for plant injury at 250 g/ha: 250 g ai/ha
How it was run: (§2)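 Test compound in 0.5% Tween 20 acetone/water (50:50) was applied at three rates (15.625, 62.5, 250 g/ha) to soil sown one day earlier. After 13 days plants were scored for injury, where 0 means unaffected and 100 means completely damaged.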

[8] = test system: giant foxtail (Setaria faberi); assay: Test G Pre-Emergence Protocol; conditions: Setaria faberi, pre-emergence, 312 h, evaluated after 13 days; for pest or weed control at 15.625 g/ha: 15.625 g ai/ha; for pest or weed control at 15.625 g/ha / pest or weed control at 250 g/ha: read-out: Foxtail, Giant damage rating (100=total damage to plant; 0=no damage to plant); for pest or weed control at 62.5 g/ha: 62.5 g ai/ha, 100=total damage to plant, 0=no damage to plant, read-out: plant damage rating, Foxtail, Giant; for pest or weed control at 250 g/ha: 250 g ai/ha
How it was run: as §2

[9] = test system: velvetleaf (Abutilon theophrasti); assay: Test G Pre-Emergence Protocol; conditions: Abutilon theophrasti, pre-emergence, 312 h, evaluated after 13 days; for pest or weed control at 15.625 g/ha: 15.625 g ai/ha; for pest or weed control at 15.625 g/ha / pest or weed control at 250 g/ha: read-out: Velvetleaf damage rating (100=total damage to plant; 0=no damage to plant); for pest or weed control at 62.5 g/ha: 62.5 g ai/ha, 100=total damage to plant, 0=no damage to plant, read-out: plant damage rating, Velvetleaf; for pest or weed control at 250 g/ha: 250 g ai/ha
How it was run: as §2

[10] = test system: barnyardgrass (Echinochloa crus-galli); assay: Test G Pre-Emergence Protocol; conditions: Echinochloa crus-galli, pre-emergence, 312 h, evaluated after 13 days; for pest or weed control at 15.625 g/ha: 15.625 g ai/ha, read-out: Barnyard grass damage rating (100=total damage to plant; 0=no damage to plant); for pest or weed control at 62.5 g/ha: 62.5 g ai/ha, 100=total damage to plant, 0=no damage to plant, read-out: plant damage rating, Barnyardgrass; for pest or weed control at 250 g/ha: 250 g ai/ha, read-out: Barnyardgrass damage rating (100=total damage to plant; 0=no damage to plant)
How it was run: as §2

[11] = test system: ivy-leaved morning glory (Ipomoea hederacea); assay: Test G Pre-Emergence Protocol; conditions: Ipomoea, pre-emergence, 312 h, evaluated after 13 days; for pest or weed control at 15.625 g/ha: 15.625 g ai/ha, read-out: Morning-glory, Ivy-leaved damage rating (100=total damage to plant; 0=no damage to plant); for pest or weed control at 250 g/ha: 250 g ai/ha, read-out: Morningglory, Ivy-leaved damage rating (100=total damage to plant; 0=no damage to plant)
How it was run: as §2

[12] = test system: redroot pigweed (Amaranthus retroflexus); assay: Test G Pre-Emergence Protocol; conditions: Amaranthus retroflexus, pre-emergence, 312 h, evaluated after 13 days; for pest or weed control at 15.625 g/ha: 15.625 g ai/ha; for pest or weed control at 15.625 g/ha / pest or weed control at 250 g/ha: read-out: Pigweed, Redroot damage rating (100=total damage to plant; 0=no damage to plant); for pest or weed control at 62.5 g/ha: 62.5 g ai/ha, 100=total damage to plant, 0=no damage to plant, read-out: plant damage rating, Pigweed, Redroot; for pest or weed control at 250 g/ha: 250 g ai/ha
How it was run: as §2

Row | Structure (SMILES) | plant injury at 15.625 g/ha [1] [%] | plant injury at 62.5 g/ha [1] [%] | plant injury at 250 g/ha [1] [%] | pest or weed control at 15.625 g/ha [2] [%] | pest or weed control at 62.5 g/ha [2] [%] | pest or weed control at 250 g/ha [2] [%] | pest or weed control at 15.625 g/ha [3] [%] | pest or weed control at 62.5 g/ha [3] [%] | pest or weed control at 250 g/ha [3] [%] | pest or weed control at 15.625 g/ha [4] [%] | pest or weed control at 62.5 g/ha [4] [%] | pest or weed control at 250 g/ha [4] [%] | pest or weed control at 15.625 g/ha [5] [%] | pest or weed control at 62.5 g/ha [5] [%] | pest or weed control at 250 g/ha [5] [%] | pest or weed control at 15.625 g/ha [6] [%] | pest or weed control at 62.5 g/ha [6] [%] | pest or weed control at 250 g/ha [6] [%] | plant injury at 15.625 g/ha [7] [%] | plant injury at 62.5 g/ha [7] [%] | further results
1 | CN1C[C@@H](c2ccc(C(F)(F)F)cc2)[C@H](C(=O)Nc2c[nH]nc2C(F)(F)F)C1=O (racemic) [Compound 1535] | 0 | 0 | 10 | 0 | 0 | 0 | 0 | 0 | 0 | 0 | 0 | 0 | 0 | 0 | 0 | 0 | 10 | 30 | 0 | 0 | plant injury at 250 g/ha [7]: 0%; pest or weed control at 15.625 g/ha [8]: 0%; pest or weed control at 62.5 g/ha [8]: 0%; pest or weed control at 250 g/ha [8]: 0%; pest or weed control at 15.625 g/ha [9]: 0%; pest or weed control at 62.5 g/ha [9]: 0%; pest or weed control at 250 g/ha [9]: 0%; pest or weed control at 15.625 g/ha [10]: 0%; pest or weed control at 62.5 g/ha [10]: 0%; pest or weed control at 250 g/ha [10]: 0%; pest or weed control at 15.625 g/ha [11]: 0%; pest or weed control at 62.5 g/ha ([11]; 62.5 g ai/ha, 100=total damage to plant, 0=no damage to plant, read-out: plant damage rating, Morningglory, Ivy-leaved): 0%; pest or weed control at 250 g/ha [11]: 0%; pest or weed control at 15.625 g/ha [12]: 0%; pest or weed control at 62.5 g/ha [12]: 20%; pest or weed control at 250 g/ha [12]: 40%
2 | CSc1nc(NC(=O)[C@@H]2C(=O)N(C)C[C@H]2c2ccc(C(F)(F)F)cc2)n[nH]1 (racemic) [Compound 1539] | 0 | 0 | 0 | 0 | 0 | 0 | 0 | 0 | 0 | 0 | 0 | 0 | 0 | 0 | 0 | 0 | 0 | 0 | 0 | 0 | plant injury at 250 g/ha [7]: 0%; pest or weed control at 15.625 g/ha [8]: 0%; pest or weed control at 62.5 g/ha [8]: 10%; pest or weed control at 250 g/ha [8]: 20%; pest or weed control at 15.625 g/ha [9]: 0%; pest or weed control at 62.5 g/ha [9]: 0%; pest or weed control at 250 g/ha [9]: 0%; pest or weed control at 15.625 g/ha [10]: 0%; pest or weed control at 62.5 g/ha [10]: 10%; pest or weed control at 250 g/ha [10]: 20%; pest or weed control at 15.625 g/ha [11]: 0%; pest or weed control at 250 g/ha [11]: 0%; pest or weed control at 15.625 g/ha [12]: 0%; pest or weed control at 62.5 g/ha [12]: 0%; pest or weed control at 250 g/ha [12]: 0%
